Several values for one entry are separate records, joined by “and”; a condition that tells them apart may be missing. Equal values may be shown once. Read-outs that look alike come from different tables or passages of the source.
Assays:
Assay in all cases: biochemical
Type in all cases: biochemical
[1] = target: panel of 391 kinases (Homo sapiens, UniProt O15146); conditions: MUSK, MK-28 1 µM, ATP 1 µM
[2] = target: panel of 391 kinases (Homo sapiens, UniProt O15264); conditions: P38d/MAPK13, MK-28 1 µM, ATP 1 µM
[3] = target: panel of 391 kinases (Homo sapiens, UniProt P31749); conditions: AKT1, MK-28 1 µM, ATP 1 µM
[4] = target: panel of 391 kinases (Homo sapiens, UniProt P36897); conditions: ALK5/TGFBR1, MK-28 1 µM, ATP 1 µM
[5] = target: panel of 391 kinases (Homo sapiens, UniProt P42679); conditions: CTK/MATK, MK-28 1 µM, ATP 1 µM
[6] = target: panel of 391 kinases (Homo sapiens, UniProt P51617); conditions: IRAK1, MK-28 1 µM, ATP 1 µM
[7] = target: panel of 391 kinases (Homo sapiens, UniProt P51956); conditions: NEK3, MK-28 1 µM, ATP 1 µM
[8] = target: panel of 391 kinases (Homo sapiens, UniProt P53355); conditions: DAPK1, MK-28 1 µM, ATP 1 µM
[9] = target: panel of 391 kinases (Homo sapiens, UniProt P78362); conditions: SRPK2, MK-28 1 µM, ATP 1 µM
[10] = target: panel of 391 kinases (Homo sapiens, UniProt Q00534); conditions: MK-28 1 µM, ATP 1 µM; for remaining activity at 1 µM: read-out: % Enzyme Activity (relative to DMSO controls)
[11] = target: panel of 391 kinases (Homo sapiens, UniProt Q02763); conditions: TIE2/TEK, MK-28 1 µM, ATP 1 µM
[12] = target: panel of 391 kinases (Homo sapiens, UniProt Q05513); conditions: PKCzeta, MK-28 1 µM, ATP 1 µM
[13] = target: panel of 391 kinases (Homo sapiens, UniProt Q07912); conditions: ACK1, MK-28 1 µM, ATP 1 µM
[14] = target: panel of 391 kinases (Homo sapiens, UniProt Q08881); conditions: ITK, MK-28 1 µM, ATP 1 µM
[15] = target: panel of 391 kinases (Homo sapiens, UniProt Q13976); conditions: PKG1a, MK-28 1 µM, ATP 1 µM
[16] = target: panel of 391 kinases (Homo sapiens, UniProt Q15118); conditions: kinase PDK1/PDHK1, compound at 1 µM, single dose in duplicates, 1 µM ATP
[17] = target: panel of 391 kinases (Homo sapiens, UniProt Q15746); conditions: MLCK/MYLK, MK-28 1 µM, ATP 1 µM
[18] = target: panel of 391 kinases (Homo sapiens, UniProt Q16513); conditions: PKN2/PRK2, MK-28 1 µM, ATP 1 µM
[19] = target: panel of 391 kinases (Homo sapiens, UniProt Q6P5Z2); conditions: PKN3/PRK3, MK-28 1 µM, ATP 1 µM
[20] = target: panel of 391 kinases (Homo sapiens, UniProt Q86UE8); conditions: TLK2, MK-28 1 µM, ATP 1 µM
[21] = target: panel of 391 kinases (Homo sapiens, UniProt Q96PY6); conditions: NEK1, MK-28 1 µM, ATP 1 µM
[22] = target: panel of 391 kinases (Homo sapiens, UniProt Q9H4B4); conditions: PLK3, MK-28 1 µM, ATP 1 µM
[23] = target: panel of 391 kinases (Homo sapiens, UniProt Q9H792); conditions: PEAK1, MK-28 1 µM, ATP 1 µM
[24] = target: panel of 391 kinases (Homo sapiens, UniProt Q9NYY3); conditions: PLK2, MK-28 1 µM, ATP 1 µM
[25] = target: panel of 391 kinases (Homo sapiens, UniProt Q9P1W9); conditions: PIM2, MK-28 1 µM, ATP 1 µM
[26] = test system: panel of 391 kinases; conditions: for % Enzyme Activity (relative to DMSO controls): MK-28 1 µM, ATP 1 µM
[27] = read-out: % Enzyme Activity (relative to DMSO controls)

Compound: CN(/N=C\c1ccc(O)c(O)c1)c1nc(-c2ccccc2)cc(-c2ccccc2)n1 [MK-28]
- % Enzyme Activity (relative to DMSO controls) [1]: 95.79%
- remaining activity at 1 µM [1, 27]: 99.1%
- % Enzyme Activity (relative to DMSO controls) [2]: 103.63%
- remaining activity at 1 µM [2, 27]: 104%
- % Enzyme Activity (relative to DMSO controls) [3]: 95.66%
- remaining activity at 1 µM [3, 27]: 96.7%
- % Enzyme Activity (relative to DMSO controls) [4]: 96.61%
- remaining activity at 1 µM [4, 27]: 97.7%
- % Enzyme Activity (relative to DMSO controls) [5]: 98.98%
- remaining activity at 1 µM [5, 27]: 101%
- % Enzyme Activity (relative to DMSO controls) [6]: 84.75%
- remaining activity at 1 µM [6, 27]: 88.3%
- % Enzyme Activity (relative to DMSO controls) [7]: 77.47%
- remaining activity at 1 µM [7, 27]: 79.2%
- % Enzyme Activity (relative to DMSO controls) [8]: 129.26%
- remaining activity at 1 µM [8, 27]: 135%
- % Enzyme Activity (relative to DMSO controls) [9]: 102.82%
- remaining activity at 1 µM [9, 27]: 106%
- % Enzyme Activity (relative to DMSO controls) ([10]; CDK6/cyclin D1): 98.75%
- remaining activity at 1 µM ([10]; CDK6/cyclin D1): 102%
- % Enzyme Activity (relative to DMSO controls) ([10]; CDK6/cyclin D3): 86.79%
- remaining activity at 1 µM ([10]; CDK6/cyclin D3): 87.6%
- % Enzyme Activity (relative to DMSO controls) [11]: 98.55%
- remaining activity at 1 µM [11, 27]: 99%
- % Enzyme Activity (relative to DMSO controls) [12]: 100.19%
- remaining activity at 1 µM [12, 27]: 100%
- % Enzyme Activity (relative to DMSO controls) [13]: 98.95%
- remaining activity at 1 µM [13, 27]: 113%
- % Enzyme Activity (relative to DMSO controls) [14]: 92.03%
- remaining activity at 1 µM [14, 27]: 92.4%
- % Enzyme Activity (relative to DMSO controls) [15]: 86.31%
- remaining activity at 1 µM [15, 27]: 89%
- % Enzyme Activity (relative to DMSO controls) [16]: 100.80%
- remaining activity at 1 µM [16, 27]: 101%
- % Enzyme Activity (relative to DMSO controls) [17]: 91.99%
- remaining activity at 1 µM [17, 27]: 93%
- % Enzyme Activity (relative to DMSO controls) [18]: 111.91%
- remaining activity at 1 µM [18, 27]: 115%
- % Enzyme Activity (relative to DMSO controls) [19]: 98.68%
- remaining activity at 1 µM [19, 27]: 101%
- % Enzyme Activity (relative to DMSO controls) [20]: 101.04%
- remaining activity at 1 µM [20, 27]: 102%
- % Enzyme Activity (relative to DMSO controls) [21]: 92.29%
- remaining activity at 1 µM [21, 27]: 94.7%
- % Enzyme Activity (relative to DMSO controls) [22]: 87.19%
- remaining activity at 1 µM [22, 27]: 91.2%
- % Enzyme Activity (relative to DMSO controls) [23]: 87.56%
- remaining activity at 1 µM [23, 27]: 88.6%
- % Enzyme Activity (relative to DMSO controls) [24]: 97.72%
- remaining activity at 1 µM [24, 27]: 98.5%
- % Enzyme Activity (relative to DMSO controls) [25]: 99.13%
- remaining activity at 1 µM [25, 27]: 102%
- number of other hits showing more than 30% increase over control ([26]; 1 μM, 391-kinase panel): 3
- % Enzyme Activity (relative to DMSO controls) ([26]; LYN B): 100.85% and 99.31%
- % Enzyme Activity (relative to DMSO controls) ([26]; PKCb2): 90.95% and 90.23%
- % Enzyme Activity (relative to DMSO controls) ([26]; PKG1b): 113.02% and 112.43%

— article PMC7181660, “A novel specific PERK activator reduces toxicity and extends survival in Huntington's disease models” (Scientific Reports, 2020)
